Several values for one entry are separate records, joined by “and”; a condition that tells them apart may be missing. Identical values can stand only once. Like-named read-outs stand apart in the source and are kept apart here.
How the values were obtained:
[1] = Isothermal titration calorimetry of biotin binding; details: for ΔCp: Table 1a, CP51/46 in PB; for ΔCp observed: change in heat capacity of biotin association, linear fit of ΔH° versus temperature
Experimental: Isothermal titration calorimetry (ITC) experiments on wild-type streptavidin were performed on a MicroCal Omega instrument. ITC experiments on CP51/46 were done using a Calorimetry Science Corporation 4200 Calorimeter (Provo, Utah). CP51/46 solutions of 30-40 μM concentration were titrated by the addition of 20×5μL aliquots of 750 μM biotin dissolved in the same buffer as the protein. All ITC experiments were done in either phosphate (50 mM sodium phosphate, 100 mM NaCl, pH 7.75) or Tris (50 mM Tris HCl, 100 mM NaCl, pH 7.75) buffers. Biotin concentrations were determined gravimetrically. Data were analyzed using the proprietary software supplied by Calorimetry Science Corporation with the instrument. Heats of dilution for each injection were subtracted from the reaction heats before data analysis. Nonlinear fitting of the data allowed the number of binding sites (n), association constant (Ka), and binding enthalpy (ΔH°) to be determined assuming noncooperative binding and one site per subunit.

[2] = wild-type, cited from earlier work; for Ka: biotin association, estimated (Green 1990); for ΔH°: 25° C. (Chilkoti 1995)
[3] = Tris buffer, per mol of subunits
[4] = phosphate buffer (PB), 25° C., per mol of subunits

Molecule	ΔCp ([1]; per mol of subunits)	ΔCp observed [1]	TΔS° ([1]; wild-type, 25° C., from estimated Ka and Gibb's free energy)	TΔS° ([1]; wild-type, 25° C., from estimated Ka and Gibb's free energy, listed as wild-type streptavidin)	ΔG° ([1]; wild-type, from estimated Ka, per mol of subunits)	Ka [2]	Ka ([2]; listed as Wild-type streptavidin)	Ka ([2]; listed as streptavidin)	ΔH° [2]	ΔH° ([2]; listed as wild type streptavidin)	TΔS° [1, 3]	ΔG° [1, 3]	ΔH° [1, 3]	Ka ([1]; biotin association, Tris buffer pH 7.75, per mol of subunits)	TΔS° [1, 4]	ΔG° [1, 4]	ΔH° [1, 4]
wild-type: Wild-type core streptavidin (SEQ ID NO:1), comparator for biotin binding [reference compound]	-345 ± 12 cal/mol·°C	−345 cal/mol° C.	-6.6 ± 0.4 kcal/mol	-6.6 kcal/mol	-18 kcal/mol	2.5e+13 M⁻¹	~2.5e+13 M⁻¹	approximately 2.5×10^13 M^−1	-24.9 ± 0.4 kcal/mol	-24.9 kcal/mol							
CP51/46: Circularly permuted core streptavidin; termini 13 and 139 joined by GGGS linker, loop residues 47-50 removed, new termini Glu51 and Ala46 (SEQ ID NO:4) (protein) MESRYVLTGRYDSAPATDGSGTALGWTVAWKNNYRNAHSATTWSGQYVGGAEARINTQWLLTSGTTEANAWKSTLVEHDTFTKVKPSAASGGGSAEAGITGTWYNQLGSTFIVTAGADGALTGTYESA	-95 ± 29 cal/mol·°C	−95 cal/mol° C.									-3.3 ± 0.7 kcal/mol	-10.1 kcal/mol	-13.4 ± 0.7 kcal/mol	(2.47 ± 1.87) × 10^7 M^−1	−3.8 (±0.8) kcal/mol and −3.8 ± 0.8 kcal/mol	-10.0 kcal/mol	−13.8 (±0.8) kcal/mol and −13.8 ± 0.8 kcal/mol

— patent publication US6492492B1, “Circularly permuted biotin binding proteins” (University of Washington, priority 1998, dated 2002)
